Reference: PubChem BioAssay (NCI)
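Assay format: 96-well plates, 48-hour exposure. TGI is the concentration that stops growth completely.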

Experiments:
Test in all cases: NCI-60 cell line screen, 48 h
NCI-H226 lung = tested on: NCI-H226 lung
EKVX NSCLC = tested on: EKVX NSCLC
HS 578T breast = tested on: HS 578T breast
MOLT-4 leukemia = tested on: MOLT-4 leukemia
SF-268 CNS = tested on: SF-268 CNS
HT29 colon = tested on: HT29 colon
SK-OV-3 ovarian = tested on: SK-OV-3 ovarian
UO-31 renal = tested on: UO-31 renal
NCI-H522 lung = tested on: NCI-H522 lung
NCI/ADR-RES ovarian = tested on: NCI/ADR-RES ovarian
A498 renal = tested on: A498 renal
PC-3 prostate = tested on: PC-3 prostate
DU-145 prostate = tested on: DU-145 prostate
NCI-H23 lung = tested on: NCI-H23 lung
T-47D breast = tested on: T-47D breast
MALME-3M melanoma = tested on: MALME-3M melanoma
CCRF-CEM leukemia = tested on: CCRF-CEM leukemia
SF-539 CNS = tested on: SF-539 CNS
SR leukemia = tested on: SR leukemia
SN12C renal = tested on: SN12C renal
SNB-75 CNS = tested on: SNB-75 CNS
UACC-62 melanoma = tested on: UACC-62 melanoma
HCT-116 colon = tested on: HCT-116 colon
MDA-MB-435 = tested on: MDA-MB-435
HCC-2998 colon = tested on: HCC-2998 colon
HCT-15 colon = tested on: HCT-15 colon
OVCAR-8 ovarian = tested on: OVCAR-8 ovarian
SW-620 colon = tested on: SW-620 colon
BT-549 breast = tested on: BT-549 breast
COLO 205 colon = tested on: COLO 205 colon
MCF7 breast = tested on: MCF7 breast
TK-10 renal = tested on: TK-10 renal
OVCAR-3 ovarian = tested on: OVCAR-3 ovarian
SK-MEL-28 melanoma = tested on: SK-MEL-28 melanoma
K-562 leukemia = tested on: K-562 leukemia
ACHN renal = tested on: ACHN renal
OVCAR-4 ovarian = tested on: OVCAR-4 ovarian
OVCAR-5 ovarian = tested on: OVCAR-5 ovarian
786-0 renal = tested on: 786-0 renal
U251 CNS = tested on: U251 CNS
CAKI-1 renal = tested on: CAKI-1 renal
SF-295 CNS = tested on: SF-295 CNS
HOP-62 NSCLC = tested on: HOP-62 NSCLC
UACC-257 melanoma = tested on: UACC-257 melanoma
SK-MEL-2 melanoma = tested on: SK-MEL-2 melanoma
HL-60(TB) leukemia = tested on: HL-60(TB) leukemia
RXF 393 renal = tested on: RXF 393 renal
LOX IMVI melanoma = tested on: LOX IMVI melanoma
NCI-H460 lung = tested on: NCI-H460 lung
IGROV1 ovarian = tested on: IGROV1 ovarian
M14 melanoma = tested on: M14 melanoma
SK-MEL-5 melanoma = tested on: SK-MEL-5 melanoma
SNB-19 CNS = tested on: SNB-19 CNS
KM12 colon = tested on: KM12 colon
HOP-92 NSCLC = tested on: HOP-92 NSCLC
RPMI-8226 leukemia = tested on: RPMI-8226 leukemia
MDA-N = tested on: MDA-N
A549 NSCLC = tested on: A549 NSCLC
MDA-MB-231 breast = tested on: MDA-MB-231 breast

`OCCO/N=C1\C(c2c(O)[nH]c3ccccc23)=Nc2ccccc21` was tested, and the TGI (NCI-H226 lung) was greater than 100 µM, the TGI (EKVX NSCLC) was greater than 100 µM and the TGI (HS 578T breast) was greater than 100 µM. It also gave a TGI (MOLT-4 leukemia) greater than 100 µM, a TGI (SF-268 CNS) greater than 100 µM and a TGI (HT29 colon) greater than 100 µM. For the same compound, the TGI (SK-OV-3 ovarian) was greater than 100 µM, the TGI (UO-31 renal) was greater than 100 µM and the TGI (NCI-H522 lung) was greater than 100 µM. The TGI (NCI/ADR-RES ovarian) was greater than 100 µM, the TGI (A498 renal) was 0.875 µM and the TGI (PC-3 prostate) was greater than 100 µM. It also gave a TGI (DU-145 prostate) greater than 100 µM, a TGI (NCI-H23 lung) greater than 100 µM and a TGI (T-47D breast) greater than 100 µM. For the same compound, the TGI (MALME-3M melanoma) was greater than 100 µM, the TGI (CCRF-CEM leukemia) was greater than 100 µM and the TGI (SF-539 CNS) was greater than 100 µM. The TGI (SR leukemia) was greater than 100 µM, the TGI (SN12C renal) was greater than 100 µM and the TGI (SNB-75 CNS) was greater than 100 µM. For the same compound, the TGI (UACC-62 melanoma) was greater than 100 µM, the TGI (HCT-116 colon) was greater than 100 µM and the TGI (MDA-MB-435) was greater than 100 µM. It also gave a TGI (HCC-2998 colon) greater than 100 µM, a TGI (HCT-15 colon) greater than 100 µM and a TGI (OVCAR-8 ovarian) greater than 100 µM. For the same compound, the TGI (SW-620 colon) was greater than 100 µM, the TGI (BT-549 breast) was greater than 100 µM and the TGI (COLO 205 colon) was greater than 100 µM. The TGI (MCF7 breast) was greater than 100 µM, the TGI (TK-10 renal) was greater than 100 µM and the TGI (OVCAR-3 ovarian) was greater than 100 µM. It also gave a TGI (SK-MEL-28 melanoma) greater than 100 µM, a TGI (K-562 leukemia) greater than 100 µM and a TGI (ACHN renal) greater than 100 µM. For the same compound, the TGI (OVCAR-4 ovarian) was greater than 100 µM, the TGI (OVCAR-5 ovarian) was greater than 100 µM and the TGI (786-0 renal) was greater than 100 µM. The TGI (U251 CNS) was greater than 100 µM, the TGI (CAKI-1 renal) was greater than 100 µM and the TGI (SF-295 CNS) was greater than 100 µM. For the same compound, the TGI (HOP-62 NSCLC) was greater than 100 µM, the TGI (UACC-257 melanoma) was greater than 100 µM and the TGI (SK-MEL-2 melanoma) was greater than 100 µM. For the same compound, the TGI (HL-60(TB) leukemia) was greater than 100 µM, the TGI (RXF 393 renal) was greater than 100 µM and the TGI (LOX IMVI melanoma) was greater than 100 µM. It also gave a TGI (NCI-H460 lung) greater than 100 µM, a TGI (IGROV1 ovarian) greater than 100 µM and a TGI (M14 melanoma) greater than 100 µM. It also gave a TGI (SK-MEL-5 melanoma) greater than 100 µM, a TGI (SNB-19 CNS) greater than 100 µM and a TGI (KM12 colon) greater than 100 µM. The TGI (HOP-92 NSCLC) was greater than 100 µM, the TGI (RPMI-8226 leukemia) was greater than 100 µM and the TGI (MDA-N) was greater than 100 µM. For the same compound, the TGI (A549 NSCLC) was greater than 100 µM.

`Cc1cccc(Nc2nn3c(=O)c4c5c(sc4nc3s2)CCCC5)c1` showed a TGI (NCI-H226 lung) greater than 100 µM, a TGI (HS 578T breast) greater than 100 µM and a TGI (MOLT-4 leukemia) greater than 100 µM. The TGI (SF-268 CNS) was greater than 100 µM, the TGI (HT29 colon) was greater than 100 µM and the TGI (SK-OV-3 ovarian) was greater than 100 µM. The TGI (UO-31 renal) was greater than 100 µM, the TGI (NCI-H522 lung) was greater than 100 µM and the TGI (NCI/ADR-RES ovarian) was greater than 100 µM. The TGI (PC-3 prostate) was greater than 100 µM, the TGI (DU-145 prostate) was greater than 100 µM and the TGI (NCI-H23 lung) was 57.1 µM. For the same compound, the TGI (T-47D breast) was 74.2 µM, the TGI (CCRF-CEM leukemia) was greater than 100 µM and the TGI (SF-539 CNS) was greater than 100 µM. The TGI (SR leukemia) was greater than 100 µM, the TGI (SN12C renal) was greater than 100 µM and the TGI (SNB-75 CNS) was 78.4 µM. It also gave a TGI (UACC-62 melanoma) of 5.92 µM, a TGI (HCT-116 colon) greater than 100 µM and a TGI (MDA-MB-435) greater than 100 µM. It also gave a TGI (HCT-15 colon) greater than 100 µM, a TGI (OVCAR-8 ovarian) greater than 100 µM and a TGI (SW-620 colon) greater than 100 µM. The TGI (BT-549 breast) was 68.7 µM, the TGI (MDA-MB-231 breast) was greater than 100 µM and the TGI (COLO 205 colon) was greater than 100 µM. The TGI (MCF7 breast) was greater than 100 µM, the TGI (TK-10 renal) was greater than 100 µM and the TGI (OVCAR-3 ovarian) was greater than 100 µM. It also gave a TGI (SK-MEL-28 melanoma) greater than 100 µM, a TGI (K-562 leukemia) greater than 100 µM and a TGI (ACHN renal) greater than 100 µM. For the same compound, the TGI (OVCAR-4 ovarian) was greater than 100 µM, the TGI (OVCAR-5 ovarian) was greater than 100 µM and the TGI (786-0 renal) was greater than 100 µM. For the same compound, the TGI (U251 CNS) was greater than 100 µM, the TGI (CAKI-1 renal) was greater than 100 µM and the TGI (SF-295 CNS) was 14.4 µM. The TGI (HOP-62 NSCLC) was greater than 100 µM, the TGI (UACC-257 melanoma) was greater than 100 µM and the TGI (SK-MEL-2 melanoma) was greater than 100 µM. The TGI (HL-60(TB) leukemia) was greater than 100 µM, the TGI (RXF 393 renal) was 62.8 µM and the TGI (LOX IMVI melanoma) was 23.1 µM. For the same compound, the TGI (NCI-H460 lung) was greater than 100 µM, the TGI (IGROV1 ovarian) was greater than 100 µM and the TGI (M14 melanoma) was greater than 100 µM. It also gave a TGI (SK-MEL-5 melanoma) greater than 100 µM, a TGI (SNB-19 CNS) greater than 100 µM and a TGI (KM12 colon) greater than 100 µM. It also gave a TGI (HOP-92 NSCLC) greater than 100 µM, a TGI (MDA-N) greater than 100 µM and a TGI (A549 NSCLC) greater than 100 µM.
